Ends that are not written are not given here.
Columns and labels:
[1] = system: Chronic Myocardial Infarction Model; experiment: Histology/immunohistochemistry of infarct region (infarct size, angiogenesis, cardiac cells); format: in vivo, Sprague-Dawley rats; settings: rat, 5 weeks post-treatment; for Density of cardiomyocytes within the infarct region / Infarct size: compared to PBS negative control; for Capillary density in the infarct region: CD31 staining; for Capillary density in the infarct region / Arteriole density within the infarct region: mean ± SD; for Infarct size: Masson's trichrome; for Arteriole density within the infarct region: α-smooth muscle actin staining
Method: (§1) All surgical procedures were approved by the Committee for Animal Research of the University of California San Francisco (San Francisco, Calif.). Female Sprague-Dawley rats (225-250 g) were anesthetized with isoflurane. The chest was opened by a median sternotomy, and a single stitch of 7-0 Ticron suture (United States Surgical division of Tyco Healthcare, Norwalk, Conn.) was introduced around the left anterior descending (LAD) coronary artery and tightened to occlude for 30 min. before re-perfusing the vessel (Yu et al, J Thorac Cardiovasc Surg. 2009 Jan. 1, 2009; 137(1):180-7; Christman et a, J Am Coll Cardiol. 2004; 44(3):654-60; Christman et al, Tissue Eng. 2004; 10(3-4):403-9; Huang et al, Tissue Eng. 2005; 11(11-12):1860-6; Sievers et al, Magn Reson Med. 1989; 10:172-81; and Yu et al, Biomaterials. 2009; 30(5):751-6; which are hereby incorporated by reference in their entirety). Cardiac monitoring during the LAD occlusion confirmed the presence of myocardial injury as indicated by ST-elevation. The chest was then closed and the animal was allowed to recover for 5 weeks in order to allow for a LV aneurysm to fully develop. Transthoracic echocardiography was performed 5 weeks post-MI and 5 weeks post-treatment as previously described (Yu et al, J Thorac Cardiovasc Surg. 2009 Jan. 1, 2009; 137(1):180-7; and Litwin et al, Circulation. 1994; 89:345-54; which are hereby incorporated by reference in their entirety).
(§2) Five weeks post-MI and prior to treatment, we verified the LV aneurysmal formation and compromised LV function via echocardiography. The rats were randomized into MC:CMC, MC:CMC-RGD, MC:CMC-HepIII, or phosphate-buffered saline (PBS) control groups (N=8-9 rats/group). Using a closed chest echocardiography-guided injection technique (Springer et al, American Journal of Physiology—Heart and Circulatory Physiology. Sep. 1, 2005; 289(3):H1307-H14; which is hereby incorporated by reference in its entirety), 100 μL of polymer or PBS solution was injected into the infracted LV region of each heart, using a 1 mL syringe system and a 25-gauge needle.
Five weeks post-treatment (10 weeks post-MI), the rats were euthanized and their hearts were harvested, rinsed in cold saline, blotted-dry and fresh frozen in Tissue Tek O.C.T. freezing medium (Sakura Finetek, Torrance, Calif.). The hearts were sectioned into 10 μm slices. Sequential slides spanning the LV region were stained with Masson's trichrome stain and were used for morphological assessment of the infarct size as previously described (Christman et al, J Am Coll Cardiol. 2004; 44(3):654-60). Angiogenesis, arteriogenesis, and the number of cardiac cells within the infarct region were examined by immunohistochemical (IHC) staining with mouse monoclonal anti-CD31 (BD Biosciences Pharmingen, San Diego, Calif.) to visualize capillaries, mouse monoclonal anti-α-smooth muscle actin (Sigma, St. Louis, Mo.) to detect arterioles (Virag et al, Am J Pathol. 2003 Dec. 1, 2003; 163(6):2433-40; which is hereby incorporated by reference in its entirety), and mouse monoclonal anti-rat cardiac α-myosin heavy chain (Panorama Research Institute, Mountain View, Calif.) to detect the cardiac cells. The staining assay was performed using mouse-on-rat HRP-polymer (Biocare Medical, Concord, Calif.) on slides that were sequential to the slides stained with trichrome. Capillaries in the infarct region were identified as a single layer of CD31-positive cells with flattened morphology. Vessel density, cardiac cell density, and nuclei density was calculated on the basis of 5 high magnification fields per section that spanned the infarct and averaged among 5 sections for each sample. Arterioles within or bordering the infarct were identified as staining positive for α-smooth muscle actin and as having a visible lumen with a diameter between 10 and 100 μm (Yu et al, J Thorac Cardiovasc Surg. 2009 Jan. 1, 2009; 137(1):180-7; and Christman et a, J Am Coll Cardiol. 2004; 44(3):654-60). […]

[2] = Rheology studies of 5:1 MC:CMC polymer blends; format: physicochemical; settings: for Gelling temperature: 5:1 MC:CMC polymer blends, intersection of elastic and viscous modulus plots, mean ± SEM; for Effect of peptide conjugation on viscoelastic properties of the polymer: 5:1 blend, 20-40° C., vs unconjugated polymer
Method: Rheology measurements (Advanced Rheometer AR2000, TA Instruments, New Castle, Del.) were done on MC:CMC, MC:CMC-RGD, and MC:CMC-HepIII co-polymers mixed at a 5:1 ratio. The elastic modulus and viscous modulus were determined for temperatures ranging from 20-40° C., with 1° C. increments. The equilibration time was set at 1 min. and the frequency was set at 1 Hz. The gelling temperature was defined as the point of intersection between the plot for the elastic modulus and the plot for the viscous modulus. Measurements were done in triplicate.

[3] = system: Chronic Myocardial Infarction Model; experiment: Echocardiography in chronic myocardial infarction model after polymer injection; format: in vivo, Sprague-Dawley rats; settings: rat; for Diastolic volume / MI wall thickness / Systolic volume: 5 weeks post-treatment vs baseline; for Fractional area change (FAC), 5 weeks post-treatment / LV ejection fraction, 5 weeks post-treatment: 100 μL injected into infarcted LV, 5 weeks post-treatment (10 weeks post-MI); for Fractional area change (FAC), 5 weeks post-treatment / LV ejection fraction, 5 weeks post-treatment / Fractional area change (FAC), baseline / LV ejection fraction, baseline: mean ± SD; for Fractional area change (FAC), baseline / LV ejection fraction, baseline: baseline 5 weeks post-MI, before treatment
Method: as §1, §2

Row | Substance | Density of cardiomyocytes within the infarct region [1] | Capillary density in the infarct region [1] [capillaries/mm^2] | Infarct size [1] | Arteriole density within the infarct region [1] [arterioles/mm^2] | Gelling temperature [2] [°C] | Effect of peptide conjugation on viscoelastic properties of the polymer [2] | Diastolic volume [3] | MI wall thickness [3] | Systolic volume [3] | Fractional area change (FAC), 5 weeks post-treatment [3] [%] | LV ejection fraction, 5 weeks post-treatment [3] [%] | Fractional area change (FAC), baseline [3] [%] | LV ejection fraction, baseline [3] [%]
1 | MC:CMC-HepIII: Methylcellulose blended 5:1 with carboxymethylcellulose conjugated to HepIII peptide GEFYFDLRLKGDKY (SEQ ID NO: 2) (also: conjugated to carboxymethylcellulose, blended with methylcellulose (attachment site not given here)) | higher density | 424±56 | statistically significant reduction | 28±10 | 26.85 ± 0.6256 | decreased stiffness and viscosity | significantly decreased | increase | significantly decreased | 45.6±9.63 | 43.0±6.25 | 36.9±2.60 | 36.9±2.18
2 | MC:CMC-RGD: Methylcellulose blended 5:1 with carboxymethylcellulose conjugated to RGD peptide GRGDSPASSPISC (SEQ ID NO: 1) (also: conjugated to carboxymethylcellulose, blended with methylcellulose (attachment site not given here)) | higher density | 472±146 | statistically significant reduction | 32±12 | 26.75 ± 0.4954 | did not significantly alter | significantly decreased | increase | significantly decreased | 44.0±9.26 | 42.9±8.29 | 36.0±2.44 | 34.2±1.91
